Here are results for nine molecules from patent publication EP4768499A1, “MACROCYCLIC PEPTIDE COMPOUND HAVING CELL MEMBRANE PERMEABILITY AND METABOLIC STABILITY, AND LIBRARY CONTAINING SAME” (Chugai Seiyaku Kabushiki Kaisha, priority 2023, dated 2025).

Like-named read-outs stand apart in the source and are kept apart here. Starred links: 1 amine or outer side, 2 acyl side, 3 side chain; linkers in the order of their positions; H or OH if unused. Positions of bridges follow the written chain, without caps; N, C: chain ends. Non-standard residues stand in square brackets, D forms with d. Residues, ends and D or L forms follow the SMILES beside them. *: point of attachment. NMeF = CN[C@@H](Cc1ccccc1)C(=O)O; NMeGABA = CN(CCCC(=O)[*:2])[*:1]; NMeI = CC[C@H](C)[C@H](NC)C(=O)O; hPhe = N[C@@H](CCc1ccccc1)C(=O)O; NMeβAla = CN(CCC(=O)[*:2])[*:1]; NMeL = CN[C@@H](CC(C)C)C(=O)O; dNMeV = CN[C@@H](C(=O)O)C(C)C; NMeV = CN[C@H](C(=O)O)C(C)C; NMeAbu = CC[C@H](NC)C(=O)O; NMeA = CN[C@@H](C)C(=O)O; Piperidide = C1CCN(*)CC1; Abu = CC[C@H](N)C(=O)O; NBuGly = CCCCNCC(=O)O; βAla = NCCC(=O)O; Sar = CNCC(=O)O; tBu = CC(C)(C)*

Series [1] can be described thus: Membrane permeability test using Caco-2 cells with preincubation. It is filed as in vitro ADME. Conditions: Caco-2. On the procedure: (§1) The permeability coefficient (Caco-2 Papp (cm/sec)) is calculated using a numerical expression 1. [Expression 1] Papp = (1)/(C1 (0) × S) × (dQ)/(dt) [formula] dQ/dt represents the permeation rate of drug (the amount of drug appearing on the Basal side per unit time), S represents the total surface area of cells, and C1(0) represents the concentration of drug added on the Apical side.
(§2) Using a mixed medium of FaSSIF containing 1% DMSO and DMEM as the apical medium, and DMEM as the basal medium, Caco-2 cells and peptide compounds are preincubated for 20 to 24 hours under conditions of 5% CO2, 37°C, and 80 rpm. Afterward, the culture medium on the Apical side and the Basal side are aspirated and washed, the peptide compound was added to a FaSSIF/HBSS buffer solution containing 1% DMSO (1% DMSO) (pH 6.0) at the Apical side, a HBSS buffer solution containing 4% BSA (pH 7.4) was added to the Basal side, and measurement of membrane permeability is started. Each well is shaken under 5% CO2 at 37°C and 80 rpm, and at 180 minutes after the start of shaking, a sample on the Basal side is collected. The amount of peptide compounds in the sample was measured using LCMS, and the membrane permeability coefficient was calculated from the permeation amount (Table 7). When calculating the membrane permeability coefficient (Papp) from the permeation amount, the following expression can be used. Papp = (dQ)/(dt) × (1)/(C1 (0) × S) [formula]
(§3) dQ/dt represents the permeation rate of drug (the amount of drug appearing on the Basal side per unit time), C1(0) represents the concentration of drug added on the Apical side, and S represents the total surface area of cells.
(Caco-2 monolayers are a common model of the intestinal barrier.)

The test system of series [2] is Caco-2 cells. Described as above. In kind it is in vitro ADME. On the procedure:
as §1, §2, §3

Series [3] in a line: Metabolic stability test: liver microsomal stability assay. In kind it is in vitro ADME, mouse. Conditions: for microsomal CLint at 1 µM: male, pH 7.4, presence of NADPH, read-out: Mouse Hepatic Microsome CLh,int NADPH(+). On the procedure:
Under the presence and absence of NADPH, a microsome solution prepared to a concentration of 0.5 mg protein/mL using 100 mM phosphate buffer (pH 7.4) with mouse liver microsomes (male, Corning Incorporated, USA) and the compound at a concentration of 1 µM were subjected to a metabolic reaction for 22 minutes, 44 minutes, or 66 minutes. Protein removal processing was performed over time using acetonitrile, and the remaining amount of unchanged compound was analyzed using LCMS to calculate the intrinsic hepatic clearance (CLh, int) (Table 6).

[4] abbreviates: preincubation 20 to 24 hours, Apical FaSSIF/HBSS pH 6.0, Basal HBSS 4% BSA pH 7.4, 180 minutes, read-out: Caco2 Papp.
Setting [5] is: Caco-2 cells, preincubation 20 to 24 hours, apical FaSSIF/HBSS 1% DMSO pH 6.0, basal HBSS 4% BSA pH 7.4, basal sample at 180 minutes.
Where [6] appears, read: mouse liver microsomes 0.5 mg protein/mL, compound 1 µM.
Where [7] appears, read: mouse liver microsomes 0.5 mg protein/mL, compound 1 µM, absence of NADPH.

Regarding `CCCCN1CC(=O)N(C)[C@@H](CC)C(=O)N[C@@H](CC(C)C)C(=O)N[C@H](C(=O)N2CCCCC2)CC(=O)N(C)[C@@H](C)C(=O)N[C@@H]([C@@H](C)CC)C(=O)N(C)[C@@H](Cc2ccccc2)C(=O)N(C)[C@@H](CC(C)C)C(=O)N[C@@H](C(C)C)C(=O)N(C)CC(=O)N[C@@H](CC(C)C)C(=O)N(C)[C@@H](Cc2ccccc2)C(=O)N(C)[C@@H](C)C(=O)N[C@@H](CC(C)C)C1=O` [pd018] ([NMeA]I[NMeF][NMeL]V[Sar]L[NMeF][NMeA]L[NBuGly][NMeAbu]LD-Piperidide; lactam N-14), the Papp A→B in series [1] (setting [4]) stood at 0.11 ×10⁻⁶ cm/s. The “Caco2 Papp (10^-6 cm/sec)” value in series [2] (setting [5]) is 0.11 10^-6 cm/sec. The microsomal CLint at 1 µM in series [3] (setting [6]) was found to be 42.3 µL/min/mg. Also, the “Mouse Hepatic Microsome CLh,int NADPH(-)” value in series [3] (setting [7]) is recorded as 34.1 µL/min/mg Protein.
For `CCCCN1CC(=O)N[C@@H](C)C(=O)N(C)[C@@H](Cc2ccccc2)C(=O)N[C@@H](CC(C)C)C(=O)N[C@@H](C)C(=O)N(C)[C@@H](C(C)C)C(=O)N[C@H](C(=O)N2CCCCC2)CC(=O)N[C@H](C(C)C)C(=O)N(C)[C@@H](Cc2ccccc2)C(=O)N[C@@H](CC)C(=O)N(C)[C@@H](C(C)C)C(=O)N(C)CCC(=O)N[C@@H]([C@@H](C)O)C(=O)N(C)[C@@H](CC(C)C)C1=O` [pd019] ([dV][NMeF][Abu][NMeV][NMeβAla]T[NMeL][NBuGly]A[NMeF]LA[NMeV]D-Piperidide; lactam N-14), in that order: less than 0.11 ×10⁻⁶ cm/s, <0.11 10^-6 cm/sec, 34.7 µL/min/mg and 24.9 µL/min/mg Protein.
`CC[C@H]1C(=O)N[C@@H](C(C)C)C(=O)N[C@H](C(=O)N2CCCCC2)CC(=O)N(C)[C@H](C(C)C)C(=O)N(C)[C@@H](Cc2ccccc2)C(=O)N[C@@H](CC(C)C)C(=O)N(C)CC(=O)N[C@@H](CC(C)C)C(=O)N[C@@H]([C@@H](C)O)C(=O)N(C)[C@@H](CC(C)C)C(=O)N(C)[C@@H](C(C)C)C(=O)N[C@@H](C)C(=O)N[C@@H](COC(C)(C)C)C(=O)N(C)[C@@H](Cc2ccccc2)C(=O)N1C` [pd020] ([dNMeV][NMeF]L[Sar]LT[NMeL][NMeV]AS(tBu)[NMeF][NMeAbu]VD-Piperidide; lactam N-14): the Papp A→B in series [1] (setting [4]) was less than 0.11 ×10⁻⁶ cm/s. In addition, the “Caco2 Papp (10^-6 cm/sec)” value in series [2] (setting [5]) was <0.11 10^-6 cm/sec. The microsomal CLint at 1 µM in series [3] (setting [6]) was found to be 33.3 µL/min/mg. In addition, the “Mouse Hepatic Microsome CLh,int NADPH(-)” value in series [3] (setting [7]) was 24.9 µL/min/mg Protein.
As for `CC[C@@H]1NC(=O)[C@H](Cc2ccccc2)N(C)C(=O)[C@H]([C@@H](C)CC)NC(=O)[C@H](CC(C)C)N(C)C(=O)[C@H](CC(C)C)NC(=O)CCN(C)C(=O)C[C@@H](C(=O)N2CCCCC2)NC(=O)[C@H](C(C)C)NC(=O)[C@H](CC(C)C)N(C)C(=O)[C@H](C)N(C)C(=O)[C@H]([C@@H](C)O)NC(=O)[C@H](CC(C)C)N(C)C(=O)[C@H](COC(C)(C)C)NC(=O)[C@H](Cc2ccccc2)N(C)C1=O` [pd021] ([NMeβAla]L[NMeL]I[NMeF][Abu][NMeF]S(tBu)[NMeL]T[NMeA][NMeL]VD-Piperidide; lactam N-14), the Papp A→B in series [1] (setting [4]) amounted to 0.15 ×10⁻⁶ cm/s. Further, the “Caco2 Papp (10^-6 cm/sec)” value in series [2] (setting [5]) was 0.15 10^-6 cm/sec. In addition, the microsomal CLint at 1 µM in series [3] (setting [6]) was 37.1 µL/min/mg. In addition, the “Mouse Hepatic Microsome CLh,int NADPH(-)” value in series [3] (setting [7]) is 36.3 µL/min/mg Protein.
The corresponding values for `CC[C@H](C)[C@@H]1NC(=O)[C@H](COC(C)(C)C)NC(=O)[C@H]([C@@H](C)O)NC(=O)[C@H](Cc2ccccc2)N(C)C(=O)[C@H](C)N(C)C(=O)[C@H](CC(C)C)N(C)C(=O)[C@H](CCc2ccccc2)NC(=O)[C@@H]2CCCN2C(=O)[C@H]([C@@H](C)CC)NC(=O)[C@H](CC(C)C)N(C)C(=O)[C@H](C)NC(=O)CCCN(C)C(=O)C[C@@H](C(=O)N2CCCCC2)NC(=O)[C@H](CC(C)C)N(C)C1=O` [pd022] ([NMeGABA]A[NMeL]IP[hPhe][NMeL][NMeA][NMeF]TS(tBu)I[NMeL]D-Piperidide; lactam N-14) are 0.15 ×10⁻⁶ cm/s, 0.15 10^-6 cm/sec, 44.4 µL/min/mg and 36.4 µL/min/mg Protein.
For `CC[C@@H]1NC(=O)[C@H](CC(C)C)N(C)C(=O)[C@H](C)NC(=O)[C@@H]2CCCN2C(=O)[C@H]([C@@H](C)CC)NC(=O)[C@H](CC(C)C)N(C)C(=O)[C@H](CCc2ccccc2)NC(=O)CCCN(C)C(=O)C[C@@H](C(=O)N2CCCCC2)NC(=O)[C@H](CC(C)C)N(C)C(=O)[C@H]([C@@H](C)CC)NC(=O)[C@H](C)N(C)C(=O)[C@H]([C@@H](C)O)NC(=O)[C@H](Cc2ccccc2)N(C)C1=O` [pd023] ([NMeGABA][hPhe][NMeL]IPA[NMeL][Abu][NMeF]T[NMeA]I[NMeL]D-Piperidide; lactam N-14), in that order: 0.03 ×10⁻⁶ cm/s, 0.03 10^-6 cm/sec, 43.3 µL/min/mg and 26.2 µL/min/mg Protein.
`CC[C@H](C)[C@H]1C(=O)NCCC(=O)N(C)[C@@H](CC(C)C)C(=O)N[C@H](C(=O)N2CCCCC2)CC(=O)N(C)[C@@H](C)C(=O)N[C@@H](CC(C)C)C(=O)N[C@@H]([C@@H](C)O)C(=O)N(C)[C@@H](Cc2ccccc2)C(=O)NCCC(=O)N(C)[C@@H](C(C)C)C(=O)N[C@@H](CC(C)C)C(=O)N(C)[C@@H]([C@@H](C)CC)C(=O)N[C@@H](CCc2ccccc2)C(=O)N(C)CC(=O)N1C` [pd024] ([NMeA]LT[NMeF][βAla][NMeV]L[NMeI][hPhe][Sar][NMeI][βAla][NMeL]D-Piperidide; lactam N-14) gave a Papp A→B in series [1] of 0.3 ×10⁻⁶ cm/s. Further, the “Caco2 Papp (10^-6 cm/sec)” value in series [2] (Caco-2) is given as 0.30 10^-6 cm/sec. Besides, the “Mouse Hepatic Microsome CLh,int NADPH(-)” value in series [3] is given as 20.0 µL/min/mg Protein.
Take `CC[C@H](C)[C@@H]1NC(=O)[C@H](C)NC(=O)[C@H](C(C)C)N(C)C(=O)[C@H](COC(C)(C)C)NC(=O)[C@H](C)N(C)C(=O)C[C@@H](C(=O)N2CCCCC2)NC(=O)[C@H](C(C)C)NC(=O)[C@H](Cc2ccccc2)N(C)C(=O)[C@H](CC(C)C)N(C)C(=O)[C@H]([C@@H](C)O)NC(=O)[C@H](CC)N(C)C(=O)[C@H](Cc2ccccc2)N(C)C(=O)[C@H](C)NC(=O)[C@@H]2CCCN2C1=O` [pd025] ([NMeA]S(tBu)[NMeV]AIPA[NMeF][NMeAbu]T[NMeL][NMeF]VD-Piperidide; lactam N-14): in series [1] (setting [4]), the Papp A→B is 0.05 ×10⁻⁶ cm/s. Moreover, the “Caco2 Papp (10^-6 cm/sec)” value in series [2] (setting [5]) was 0.05 10^-6 cm/sec. Also, the microsomal CLint at 1 µM in series [3] (setting [6]) was 14.8 µL/min/mg. The “Mouse Hepatic Microsome CLh,int NADPH(-)” value in series [3] (setting [7]) stood at 15.8 µL/min/mg Protein.
For `CCCCN1CC(=O)N[C@@H]([C@@H](C)CC)C(=O)N(C)[C@@H](CC(C)C)C(=O)N[C@@H](C(C)C)C(=O)N[C@H](C(=O)N2CCCCC2)CC(=O)N(C)[C@@H](C)C(=O)N(C)[C@@H](CC(C)C)C(=O)N[C@@H]([C@@H](C)O)C(=O)N(C)[C@@H](Cc2ccccc2)C(=O)N[C@@H](CC)C(=O)N(C)[C@@H](Cc2ccccc2)C(=O)N[C@@H](C)C(=O)N(C)CCC(=O)N[C@@H](CC(C)C)C1=O` [pd026] ([NMeA][NMeL]T[NMeF][Abu][NMeF]A[NMeβAla]L[NBuGly]I[NMeL]VD-Piperidide; lactam N-14), in that order: 0.58 ×10⁻⁶ cm/s, 0.58 10^-6 cm/sec, 63.5 µL/min/mg and 29.9 µL/min/mg Protein.
